Laboratory results taken from ChEMBL document CHEMBL1201862, “PubChem BioAssay data set” (2004).
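Tested at 5 concentrations; 48 h exposure; 96-well plates; endpoints linearly interpolated, else capped at highest concentration. GI50 = concentration required for 50% inhibition of growth.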 Calls of active or inactive are those of the source. Cut-off read from the data, not from the text of the source: active = GI50 up to about 1.1 µM and inactive = higher.

Key:
Assay in all cases: growth of human tumour cells (NCI), 48 h
SW-620 = test system: SW-620
NCI-H522 = test system: NCI-H522
NCI-H23 = test system: NCI-H23
HCC 2998 = test system: HCC 2998
K562 = test system: K562
DU-145 = test system: DU-145
OVCAR-4 = test system: OVCAR-4
LOX IMVI = test system: LOX IMVI
CCRF-CEM = test system: CCRF-CEM
SF-295 = test system: SF-295
HL-60 = test system: HL-60
OVCAR-5 = test system: OVCAR-5
MDA-MB-435 = test system: MDA-MB-435
786-0 = test system: 786-0
OVCAR-3 = test system: OVCAR-3
SF-268 = test system: SF-268
MCF7 = test system: MCF7
SNB-19 = test system: SNB-19
EKVX = test system: EKVX
SK-MEL-2 = test system: SK-MEL-2

Compound	GI50 (SW-620)	GI50 (NCI-H522)	GI50 (NCI-H23)	GI50 (HCC 2998)	GI50 (K562)	GI50 (DU-145)	GI50 (OVCAR-4)	GI50 (LOX IMVI)	GI50 (CCRF-CEM)	GI50 (SF-295)	GI50 (HL-60)	GI50 (OVCAR-5)	GI50 (MDA-MB-435)	GI50 (786-0)	GI50 (OVCAR-3)	GI50 (SF-268)	GI50 (MCF7)	GI50 (SNB-19)	GI50 (EKVX)	GI50 (SK-MEL-2)
CN(C)c1ccc(/C=N/Nc2nc3ccccc3c(=O)n2-c2ccccc2)cc1	> 100 µM (inactive)	44.5 µM (inactive)	> 100 µM (inactive)	> 100 µM (inactive)	> 100 µM (inactive)	> 100 µM (inactive)	15.9 µM (inactive)	> 100 µM (inactive)	> 100 µM (inactive)	93.1 µM (inactive)	> 100 µM (inactive)	> 100 µM (inactive)	> 100 µM (inactive)	23.7 µM (inactive)	27 µM (inactive)	43.5 µM (inactive)	> 100 µM (inactive)	34.9 µM (inactive)	–	–
O=C(c1ccc(Cl)c(Cl)c1)N(C(=S)OC12CC3CC(CC(C3)C1)C2)c1ccccc1	35.2 µM (inactive)	13.2 µM (inactive)	28.9 µM (inactive)	43.3 µM (inactive)	17.1 µM (inactive)	83.2 µM (inactive)	38.2 µM (inactive)	–	2.8 µM (inactive)	36.1 µM (inactive)	15.8 µM (inactive)	18.7 µM (inactive)	30.2 µM (inactive)	30.3 µM (inactive)	39.4 µM (inactive)	40.4 µM (inactive)	28 µM (inactive)	33.3 µM (inactive)	20.8 µM (inactive)	20 µM (inactive)
COc1cc(/C=C2/SC(c3ccccc3)N(c3cccc(NC(C)=O)c3)C2=O)cc(OC)c1OC (stereo unspecified)	57.1 µM (inactive)	18.2 µM (inactive)	44.9 µM (inactive)	> 100 µM (inactive)	35.6 µM (inactive)	92.3 µM (inactive)	66.2 µM (inactive)	40.3 µM (inactive)	–	58.5 µM (inactive)	33.7 µM (inactive)	> 100 µM (inactive)	35 µM (inactive)	81.8 µM (inactive)	60.1 µM (inactive)	67.9 µM (inactive)	39.2 µM (inactive)	31 µM (inactive)	50.7 µM (inactive)	–
CC1=C(C#N)C(C#N)(C#N)C(NN(C)C)C1 (stereo unspecified)	17.3 µM (inactive)	4.07 µM (inactive)	17.1 µM (inactive)	17.2 µM (inactive)	12.2 µM (inactive)	15.7 µM (inactive)	30.7 µM (inactive)	12.6 µM (inactive)	3.59 µM (inactive)	24.5 µM (inactive)	3.59 µM (inactive)	23.3 µM (inactive)	23.7 µM (inactive)	8.99 µM (inactive)	–	21.7 µM (inactive)	10.6 µM (inactive)	> 10 µM (inactive)	14 µM (inactive)	20.2 µM (inactive)
CSc1ncnc2c1ncn2C1CC(Oc2ccc(C)cc2)C(COc2ccc(C)cc2)O1 (stereo unspecified)	> 100 µM (inactive)	> 100 µM (inactive)	49.4 µM (inactive)	> 100 µM (inactive)	–	> 100 µM (inactive)	> 100 µM (inactive)	> 100 µM (inactive)	> 100 µM (inactive)	> 100 µM (inactive)	> 100 µM (inactive)	> 100 µM (inactive)	> 100 µM (inactive)	> 100 µM (inactive)	> 100 µM (inactive)	> 100 µM (inactive)	> 100 µM (inactive)	> 100 µM (inactive)	> 100 µM (inactive)	> 100 µM (inactive)
CCOc1ccc(/N=N/C2C(=O)N(C(=O)CC(=O)Nc3ccccc3OC)N=C2C)cc1 (stereo unspecified)	8 µM (inactive)	11 µM (inactive)	38 µM (inactive)	> 21.7 µM (inactive)	13.2 µM (inactive)	> 77.6 µM (inactive)	> 19.7 µM (inactive)	29.7 µM (inactive)	> 100 µM (inactive)	> 36.6 µM (inactive)	4.17 µM (inactive)	> 100 µM (inactive)	1.93 µM (inactive)	> 39.1 µM (inactive)	8.83 µM (inactive)	> 42.8 µM (inactive)	6.61 µM (inactive)	–	–	> 38.2 µM (inactive)
CCOP(=O)(/C=C/n1cc(C)c(=O)[nH]c1=O)OCC	> 100 µM (inactive)	> 100 µM (inactive)	> 100 µM (inactive)	–	> 100 µM (inactive)	> 100 µM (inactive)	> 100 µM (inactive)	> 100 µM (inactive)	> 100 µM (inactive)	> 100 µM (inactive)	> 100 µM (inactive)	> 100 µM (inactive)	> 100 µM (inactive)	> 100 µM (inactive)	> 100 µM (inactive)	> 100 µM (inactive)	> 100 µM (inactive)	> 100 µM (inactive)	> 100 µM (inactive)	> 100 µM (inactive)
Nc1nc(N)c2cc(CNc3ccc(C(=O)NC(CC(=O)O)C(=O)O)c(Cl)c3)ccc2n1 (stereo unspecified)	< 0.0103 µM (active)	0.502 µM (active)	0.117 µM (active)	1.43 µM (inactive)	< 0.0192 µM (active)	0.0501 µM (active)	153 µM (inactive)	< 0.01 µM (active)	0.0342 µM (active)	0.0698 µM (active)	14.3 µM (inactive)	0.191 µM (active)	< 0.01 µM (active)	0.0736 µM (active)	0.8 µM (active)	0.0582 µM (active)	0.0507 µM (active)	0.248 µM (active)	–	15 µM (inactive)
CC(=O)OCCCCN1C(=O)CSc2ccccc21	> 100 µM (inactive)	> 100 µM (inactive)	–	–	–	> 100 µM (inactive)	> 100 µM (inactive)	> 100 µM (inactive)	> 100 µM (inactive)	> 100 µM (inactive)	> 100 µM (inactive)	> 100 µM (inactive)	> 100 µM (inactive)	> 10 µM (inactive)	> 100 µM (inactive)	–	> 100 µM (inactive)	> 100 µM (inactive)	> 100 µM (inactive)	> 100 µM (inactive)
CC(C)C1CC=NN1C(=O)OC(C)(C)C (stereo unspecified)	> 100 µM (inactive)	> 100 µM (inactive)	> 100 µM (inactive)	> 100 µM (inactive)	> 100 µM (inactive)	> 100 µM (inactive)	–	> 100 µM (inactive)	> 100 µM (inactive)	> 100 µM (inactive)	> 100 µM (inactive)	> 100 µM (inactive)	> 100 µM (inactive)	> 100 µM (inactive)	> 100 µM (inactive)	> 100 µM (inactive)	> 100 µM (inactive)	–	> 100 µM (inactive)	–
COCC12CCC(OC)C34C5CC6(O)C(OC)C=C(C5C6OC(=O)c5ccccc5)C(C(OC)C13)C4N(C)C2 (stereo unspecified)	> 100 µM (inactive)	> 100 µM (inactive)	> 100 µM (inactive)	> 100 µM (inactive)	–	> 100 µM (inactive)	> 100 µM (inactive)	> 100 µM (inactive)	> 100 µM (inactive)	> 100 µM (inactive)	> 100 µM (inactive)	> 100 µM (inactive)	> 100 µM (inactive)	> 100 µM (inactive)	> 100 µM (inactive)	> 100 µM (inactive)	> 100 µM (inactive)	> 100 µM (inactive)	> 100 µM (inactive)	> 100 µM (inactive)
CCOC(=O)c1c(N)n(-c2ccccc2)c(=O)n(-c2ccccc2)c1=O	> 100 µM (inactive)	> 100 µM (inactive)	> 100 µM (inactive)	> 100 µM (inactive)	> 100 µM (inactive)	> 100 µM (inactive)	> 100 µM (inactive)	> 100 µM (inactive)	> 10 µM (inactive)	> 100 µM (inactive)	> 100 µM (inactive)	> 100 µM (inactive)	> 100 µM (inactive)	> 100 µM (inactive)	> 100 µM (inactive)	> 100 µM (inactive)	> 100 µM (inactive)	> 100 µM (inactive)	–	> 100 µM (inactive)
O=C(CC(=O)N1N=C(N(c2ccccc2)c2ccccc2)CC1c1ccccc1)Nc1ccc(Cl)cc1 (stereo unspecified)	> 100 µM (inactive)	> 100 µM (inactive)	> 100 µM (inactive)	> 100 µM (inactive)	> 100 µM (inactive)	> 100 µM (inactive)	> 100 µM (inactive)	–	> 100 µM (inactive)	> 100 µM (inactive)	> 100 µM (inactive)	> 100 µM (inactive)	> 100 µM (inactive)	> 100 µM (inactive)	> 100 µM (inactive)	> 100 µM (inactive)	> 100 µM (inactive)	> 100 µM (inactive)	> 100 µM (inactive)	> 100 µM (inactive)
O=[N+]([O-])c1cc2ccc1OCc1cccc(n1)COc1ccc(cc1[N+](=O)[O-])/C=N\CCCCCCCC/N=C\2	> 100 µM (inactive)	> 100 µM (inactive)	> 100 µM (inactive)	> 100 µM (inactive)	> 100 µM (inactive)	> 100 µM (inactive)	> 100 µM (inactive)	> 100 µM (inactive)	> 100 µM (inactive)	> 100 µM (inactive)	–	> 100 µM (inactive)	> 100 µM (inactive)	> 100 µM (inactive)	> 100 µM (inactive)	> 100 µM (inactive)	> 100 µM (inactive)	> 100 µM (inactive)	> 100 µM (inactive)	> 100 µM (inactive)
COc1cc2c(cc1OCCCCOc1cc3nc(C)nc(Cl)c3cc1OC)N=C[C@@H]1CCCN1C2=O	2.54 µM (inactive)	0.637 µM (active)	1.82 µM (inactive)	–	2.07 µM (inactive)	3.22 µM (inactive)	2.84 µM (inactive)	1.27 µM (inactive)	–	2.43 µM (inactive)	2.48 µM (inactive)	2 µM (inactive)	1.62 µM (inactive)	3.12 µM (inactive)	2.06 µM (inactive)	2.74 µM (inactive)	3.03 µM (inactive)	17.4 µM (inactive)	4.73 µM (inactive)	1.95 µM (inactive)
